Here are results for three compounds from patent US20030023104A1, “Therapeutic compound - fatty acid conjugates” (COMMONWEALTH SCIENTIFIC AND INDUSTRIAL RESEARCH ORGANISATION, priority 1995, published 2003).

Like-named read-outs stand apart in the source and are kept apart here.

For data set [1], the system named is HIV-I U4550. Description: Anti HIV activity, Ag gp120 production in infected JM cells. In kind it is cell-based. How it is done:
(§1) The anti-HIV activities of AZT-Suc-GTP1 and AZT-Suc-GTP2 were also tested. Infected cells were incubated for 5 days with compound. Compounds were dissolved in DMSO and 5-fold dilutions were used. The following parameters were measured: syncytia formation, virus antigen gp120 production, cell survival. Cytotoxicity is also measured in uninfected cells.
(§2) JM (semi mature human T-cell from lymphoblastoid leukemia) infected with HIV-I U4550
(§3) EC50=concentration which reduces Ag gp120by 50% in infected cell cultures.

Data set [2] has as its system JM (semi mature human T-cell from lymphoblastoid leukemia). Description: Cell growth (cytotoxicity) in JM cells. The format is cell-based. How it is done: as §1, §2
(§4) IC50=concentration of drug which reduces cell growth by 50%.

For data set [3], the system named is JURKAT (acute T cell human leukemia). Description: Cytotoxicity of AZT and conjugates, MTS viability assay, JURKAT. In kind it is cell-based. How it is done:
(§5) The cytotoxicity of AZT and AZT-fatty acid conjugates (AZT-Suc-GTP1P2 and P3) was tested in vitro with JURKAT (acute T cell human leukemia) and peripheral blood mononuclear cells (PBMC).
(§6) Each concentration was tested in at least 3 wells.
For orientation: Tetrazolium assays rely on reduction of a dye to a coloured formazan, in cell work by metabolically active cells.

Data set [4] concerns peripheral blood mononuclear cells (PBMC). As to the kind of experiment: Cytotoxicity of AZT and conjugates, MTS viability assay, PBMC. In kind it is cell-based, human. Particulars: 40 h, drug in ethanol. How it is done:
as §5
Human peripheral blood mononuclear cells (PBMC) were isolated from three healthy donors by centrifugation on Ficoll-Paque (Pharmacia). Cells were seeded into a 96-well plates at a density of 2×10^5 cells/200 ul complete RPMI ± drug and cultured for 40 h.
as §6

In data set [5] the test system is C8166 (human T-lymphoblastoid cells). Description: Cell growth (cytotoxicity) in C8166 cells. In kind it is cell-based. How it is done: as §1
(§7) C8166 (human T-lymphoblastoid cells) infected with HIV-I MN
as §4

Data set [6] concerns HIV-I MN. Description: Anti HIV activity, Ag gp120 production in infected C8166 cells. In kind it is cell-based. How it is done: as §1, §7, §3
The subject of data set [7] is coordination of mice. Description: Coordination on Rotor-Rod. In kind it is in vivo, Quackenbush Strain mice. Particulars: 1 and 4 hr after ip injection, 1.6 rpm. How it is done:
Coordination of mice after treatment was also assessed by placing treated animals on a Rotor-Rod at 1.6 rpm. The ability of animals to stay on the rod was assessed.

Data set [8] relates to pain response on heated plate. Particulars: for Time Response ± SEM: doses 5, 10 & 20 mg Morphine/kg pooled, 12 mice per group; for Behaviour Score ± SEM: pooled doses, panel score 0 (agitated) to 3 (placid).
Experimental: The biological activities of Morphine (Mo) and fatty acid conjugates were tested in an antinociceptive assay using mice. Various doses and duration of pain-killing effect of the drugs were examined.
Quackenbush Strain mice (male, 5-week-old, approximately 30 g live weight) were used for the experiments. Animals were given free access to food and water prior to and during the experiment. Animals were divided into groups of 12 and individually weighed. The mean weight for each group was calculated. Mice were then placed on a metal block heated to 50° C. and the time taken for the animals to show signs of discomfort was measured (baseline response: control). Mice were then injected intraperitoneally (ip) with various doses of Morphine or Morphine-fatty acid conjugate. Morphine was made up in a H2O solution and Morphine-fatty acids were made up in an emulsion containing 10% glycerylmonooleate, 21% Miglyol, 6% ethanol, 24% Tween 80 (33%) and 39% H2O. 0.2 ml of appropriate solution was injected ip into each mouse. At different times after injection, responses on the heated plate were measured. In each experiment 3 doses of Morphine and Morphine-fatty acid and 2 time points were tested. A single mouse was used for each treatment and the entire experiment repeated at least 3 times. […] Members of the panel were asked to score mice behaviour according to the following key:
0=agitated mouse, distressed
1=showing mild discomfort
2=not agitated or uncomfortable but still alert
3=placid. docile; not at all worried.
Results from the panel were averaged.
Where [9] appears, read: 5 days, read-out: IC50 (concentration of drug which reduces cell growth by 50%).

For the compound `CCCCCCCCCCCCCCCC(=O)OCC(CO)(CO)NC(=O)CNC(=O)CCC(=O)OC[C@H]1O[C@@H](n2cc(C)c(=O)[nH]c2=O)C[C@@H]1N=[N+]=[N-]` [AZT-Suc-GTP1], the “Ratio of AZT: Conjugate EC50” value in data set [1] (JM cell line) turned out to be 12.5; in data set [6] (C8166 cell line), 1.3. Besides, the EC50 in data set [1] (JM cells infected with HIV-I U4550, 5 days, read-out: EC50 (concentration which reduces Ag gp120 by 50% in infected cell cultures)) amounted to 8 µM; in data set [6] (C8166 cells infected with HIV-I MN, 5 days, read-out: EC50 (concentration which reduces Ag gp120 by 50% in infected cell cultures)) it was 0.012 µM. For the same compound, the “fold more cytotoxic than AZT” value in data set [2] and in data set [5] was 50 each time. Also, the IC50 in data set [2] (setting [9]) was found to be 100 µM; in data set [3] (JURKAT, 64 h, drug in ethanol, MTS), 43 µM; in data set [4], 26.7 µM; in data set [5] (setting [9]), 100 µM. For the same compound, in data set [3] (JURKAT cells, versus AZT), the “times more cytotoxic than the parent drug” value came out at 40.

In the case of `CN1CC[C@]23c4c5ccc(O)c4O[C@H]2[C@@H](O)C=C[C@H]3[C@H]1C5` [Morphine, reference compound], the “ability to stay on the Rotor-Rod (coordination)” value in data set [7] is on record as “able to stay on the rotor-rod”. The mean time response in data set [8] (1 mg Mo/kg ip, 4 hr, standard error of each mean ±2.86) is 23.2 s; in data set [8] (1 mg Mo/kg ip, 6 hr, standard error of each mean ±2.86), 20.8 s; in data set [8] (5 mg Mo/kg ip, 1 hr), 27.8 (4) sec; in data set [8] (5 mg Mo/kg ip, 4 hr), 23.9 (8) sec; in data set [8] (5 mg Mo/kg ip, 6 hr), 20.0 (4) sec; in data set [8] (10 mg Mo/kg ip, 4 hr, standard error of each mean ±2.86) it was 23.0 s. Also, in data set [8] (10 mg Mo/kg ip, 6 hr, standard error of each mean ±2.86), the mean time response came out at 24.2 s. Besides, the “Time Response ± SEM” value amounted to 32.7 ± 2.74 s in data set [8] (1 hr after ip injection) and 28.2 ± 2.74 s in data set [8] (4 hr after ip injection). Further, the results for the “Behaviour Score ± SEM” value in data set [8] (1 hr after ip injection) and in data set [8] (4 hr after ip injection) were 2.46 ± 0.166 and 1.93 ± 0.166, respectively.

Regarding `CCCCCCCCCCCCCCCC(=O)OCC(CO)(COC(=O)CCCCCCCCCCCCCCC)NC(=O)CNC(=O)CCC(=O)Oc1ccc2c3c1O[C@H]1[C@@H](O)C=C[C@H]4[C@@H](C2)N(C)CC[C@@]341` [Morphine-Suc-GTP2, Morphine-Suc-Gly-Tris-Dipalmitate], in data set [7], the “ability to stay on the Rotor-Rod (coordination)” value is listed as “able to stay on the rotor-rod”. For the same compound, the “mean time response” value was 24.0 (4) sec in data set [8] (5 mg Mo/kg ip, 1 hr); 30.5 (8) sec in data set [8] (5 mg Mo/kg ip, 4 hr); 27.8 (4) sec in data set [8] (5 mg Mo/kg ip, 6 hr). Further, the “Time Response ± SEM” value was found to be 26.7 ± 2.74 s in data set [8] (1 hr after ip injection) and 31.2 ± 2.74 s in data set [8] (4 hr after ip injection). For the same compound, the “Behaviour Score ± SEM” value in data set [8] (1 hr after ip injection) was 2.34 ± 0.166; in data set [8] (4 hr after ip injection), 2.35 ± 0.166. Besides, in data set [8] (ip injection), the “duration of pain-killing effect compared with morphine” value is reported as “longer lasting pain-killing effect than unconjugated morphine”.
